The text below walks through data of US20130267532A1, “CYCLIC AMIDE COMPOUNDS AND THEIR USE IN THE TREATMENT OF DISEASE” (priority 2010, published 2013).

This assay deals with T1, hERG current (Homo sapiens, UniProt Q12809).
T1 construct: expressed in transfected cells; host or cells: CHO-K1 cells expressing hERG (Persson et al., J. Cardiovasc. Electrophysiol. 16, 329-341, 2005)
Description: hERG analysis Method 2 (IonWorks HT, CHO cells). As to conditions: hERG-expressing CHO cells, ~21° C., 8-point non-cumulative curves. In kind it is cell-based. The protocol: The hERG-expressing Chinese hamster ovary K1 (CHO) cells described by (Persson, Carlsson, Duker, & Jacobson, 2005) are grown to semi-confluence at 37° C. in a humidified environment (5% CO2) in F-12 Ham medium containing L-glutamine, 10% foetal calf serum (FCS) and 0.6 mg/mL hygromycin (all available from Sigma-Aldrich). Prior to use, the monolayer is washed using a pre-warmed (37° C.) 3 mL aliquot of Versene 1:5,000 (Invitrogen). After aspiration of this solution the flask is incubated at 37° C. in an incubator with a further 2 mL of Versene 1:5,000 for a period of 6 minutes. Cells are then detached from the bottom of the flask by gentle tapping and 10 mL of Dulbecco's Phosphate-Buffered Saline containing calcium (0.9 mM) and magnesium (0.5 mM) (PBS; Invitrogen) is then added to the flask and aspirated into a 15 mL centrifuge tube prior to centrifugation (50 g, for 4 mins). The resulting supernatant is discarded and the pellet gently re-suspended in 3 mL of PBS. A 0.5 mL aliquot of cell suspension is removed and the number of viable cells (based on trypan blue exclusion) is determined in an automated reader (Cedex; Innovatis) so that the cell re-suspension volume can be adjusted with PBS to give the desired final cell concentration. It is the cell concentration at this point in the assay that is quoted when referring to this parameter. […]
A general note: The hERG channel carries a current that helps repolarise heart muscle cells.

T1 sequence (Q12809 whole entry): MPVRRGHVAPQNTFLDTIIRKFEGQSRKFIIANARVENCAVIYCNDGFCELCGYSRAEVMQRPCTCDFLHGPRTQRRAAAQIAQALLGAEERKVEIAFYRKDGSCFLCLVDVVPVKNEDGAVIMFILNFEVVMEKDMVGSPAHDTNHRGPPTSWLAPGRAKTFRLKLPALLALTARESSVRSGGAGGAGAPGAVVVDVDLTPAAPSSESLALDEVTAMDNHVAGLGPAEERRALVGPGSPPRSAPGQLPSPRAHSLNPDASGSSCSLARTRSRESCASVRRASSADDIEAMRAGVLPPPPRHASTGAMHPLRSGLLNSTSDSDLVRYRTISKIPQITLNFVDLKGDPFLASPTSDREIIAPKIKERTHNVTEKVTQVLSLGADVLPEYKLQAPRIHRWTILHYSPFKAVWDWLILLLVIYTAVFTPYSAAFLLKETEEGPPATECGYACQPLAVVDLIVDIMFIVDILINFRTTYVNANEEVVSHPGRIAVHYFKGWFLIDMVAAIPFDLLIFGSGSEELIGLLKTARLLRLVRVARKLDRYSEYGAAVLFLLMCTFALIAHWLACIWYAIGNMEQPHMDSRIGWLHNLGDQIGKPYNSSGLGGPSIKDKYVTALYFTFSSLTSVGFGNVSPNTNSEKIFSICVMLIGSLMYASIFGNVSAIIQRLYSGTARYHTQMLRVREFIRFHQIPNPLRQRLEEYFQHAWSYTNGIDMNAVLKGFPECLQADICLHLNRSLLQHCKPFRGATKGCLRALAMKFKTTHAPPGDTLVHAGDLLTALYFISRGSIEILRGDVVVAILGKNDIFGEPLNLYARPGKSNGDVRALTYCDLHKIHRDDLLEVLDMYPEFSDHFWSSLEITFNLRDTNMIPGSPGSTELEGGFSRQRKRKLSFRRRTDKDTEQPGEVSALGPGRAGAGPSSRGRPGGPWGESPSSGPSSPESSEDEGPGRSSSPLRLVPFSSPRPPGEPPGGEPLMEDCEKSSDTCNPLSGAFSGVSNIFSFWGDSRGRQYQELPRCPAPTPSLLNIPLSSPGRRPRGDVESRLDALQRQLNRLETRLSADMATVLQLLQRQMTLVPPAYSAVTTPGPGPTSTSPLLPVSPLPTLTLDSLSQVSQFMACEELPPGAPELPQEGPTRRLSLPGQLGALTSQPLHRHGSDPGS

Turning to `CCCCCNc1nc(N)nc(C)c1Cc1ccc(N2CCN(C)CC2=O)cc1OC` [Example 2, 1-(4-{[2-Amino-4-methyl-6-(pentylamino)pyrimidin-5-yl]methyl}-3-methoxyphenyl)-4-methylpiperazin-2-one], the IC50 (commonly the concentration needed to halve the response being measured) is 5.41 µM.

Molecule `CCC[C@@H](CCO)Nc1nc(N)nc(C)c1Cc1ccc(N2CCN(C)CC2=O)cc1OC` [Example 3, (S)-1-(4-{[2-Amino-4-(1-hydroxyhexan-3-ylamino)-6-methylpyrimidin-5-yl]methyl}-3-methoxyphenyl)-4-methylpiperazin-2-one] gave an IC50 of more than 33 µM.
